Results published in ChEMBL document CHEMBL1156829 (Proc Natl Acad Sci U S A, 2008).

What was measured:
[1] = NOVARTIS: Cytotoxicity against human hepatocellular carcinoma cell line (Huh7); assay type: toxicity, cell-based, Huh-7; details: Huh7 cells (hepatocellular carcinoma cell line)
Plasmodium falciparum [2] = experiment: NOVARTIS: Inhibition of Plasmodium falciparum W2 (drug-resistant) proliferation in erythrocyte-based infection assay; assay type: functional, organism-based; details: Plasmodium falciparum, W2; read-out: EC50
Plasmodium falciparum [3] = experiment: NOVARTIS: Inhibition of Plasmodium falciparum 3D7 (drug-susceptible) proliferation in erythrocyte-based infection assay; assay type: functional, organism-based; details: Plasmodium falciparum, 3D7

Structure (SMILES)	CC50 [1] [nM]	EC50 (Plasmodium falciparum [2]) [nM]	EC50 (Plasmodium falciparum [3]) [nM]
Cc1ccc(-c2nn(CC(=O)Nc3ccc(OC(F)(F)F)cc3)c(=O)c3ccccc23)cc1S(=O)(=O)N1CCCCC1	> 10000	1920	> 1250
CCCN1CCC(N2C[C@@H](NCc3ccc(OCc4ccccc4)cc3)C[C@H]2C(=O)NCCc2ccc3c(c2)OCO3)CC1	3560	701	1070
O=C1Cc2ccccc2C(=C2CCNCC2)c2ccsc21	> 10000	2040	532
CC(C)NC(=O)N1CCN(C(=O)COC(c2cccs2)c2cccnc2Cl)CC1 (centres undefined)	> 10000	2020	> 1250
CC[C@@H]1CCC[C@H](C)CC[C@@H](O[C@@H]2O[C@@H](C)[C@@H](O)[C@@H](N)[C@H]2O)[C@H](CC)CCCNC1=O	> 6250	> 1250	1580
NC(=NCc1ccccc1)NC(=O)c1nc(Cl)c(N)nc1N	> 6250	> 1250	1160
O=C(NCCCN1CCCC1=O)c1ccc2nc(N3CCOCC3)sc2c1	26800	4690	7240
CCCOc1ccc(C(=O)Nc2cccc(-c3nc4ncccc4o3)c2)cc1	> 10000	> 1750	415
COc1cc(C(=O)Nc2ccc3nc4n(c(=O)c3c2)CCCCC4)cc(OC)c1OC	> 10000	1880	> 589
CC1(C)Oc2ccc(C(=O)N3CCCC3)cc2N(CCc2ccccc2)C1=O	> 10000	1870	> 1120
Cc1cccc(Nc2nc3nonc3[nH]c2=NN=Cc2cccs2)c1C	23300	4300	8650
CC1=C(C(=O)OC(C)C)C(c2ccccc2F)C2=C(CC(C)(C)CC2=O)N1 (centres undefined)	> 10000	1910	> 1250
COC(=O)c1c(S(=O)(=O)NCCc2ccccc2)sc2c1CCN(Cc1cccnc1)C2	> 10000	1910	1580
O=C(Nc1ccc2c(c1)OCO2)c1cc2cc(C3(O)CCN(CCCc4ccccc4)CC3)ccc2o1	6320	1180	912
COc1ccc(CCN(Cc2ccc(Cl)cc2)S(=O)(=O)c2ccc(S(N)(=O)=O)cc2)cc1OC	67300	> 12500	4720
c1ccc2[nH]c(CN(Cc3nc4ccccc4[nH]3)Cc3nc4ccccc4[nH]3)nc2c1	26700	5260	191
CCOC(=O)c1[nH]c(C)c(CNc2cccc(OC)c2)c1C	6980	1200	1510
COc1cccc(CNC(=O)Cn2ncc3c(=O)oc4ccc(C)cc4c32)c1	> 10000	1760	> 1730
CCOC(=O)C1=C(C)NC2=C(C(=O)CCC2)C1c1cc(Br)c(O)c(OCC)c1 (centres undefined)	> 10000	> 1760	> 510
O=C(NC(C(=O)c1ccccc1)N1CCCCC1)c1ccco1 (centres undefined)	> 10000	> 1760	> 831
Cc1ccccc1NC(=O)N(CCCNC(=O)CCl)c1ccccc1	> 10000	1770	> 442
O=C(c1ccncc1)N1N=C(c2c(-c3ccccc3)c3cc(Br)ccc3[nH]c2=O)CC1c1ccccc1 (centres undefined)	8700	1540	144
Oc1ccccc1C=NNc1nnc2c3ccccc3n(Cc3ccccc3)c2n1	> 10000	> 1720	> 832

Structure (SMILES)	CC50 [1] [nM]	EC50 (Plasmodium falciparum [2]) [nM]	EC50 (Plasmodium falciparum [3]) [nM]
CN1CCN(N/C=C2/C(=O)N(c3nc4ccccc4s3)N=C2c2ccccc2)CC1	> 10000	> 1740	> 549
O=[N+]([O-])c1ccc2nc(NC3CCCCC3)c(NC3CCCCC3)nc2c1	14700	2640	2490
O=C(COC(=O)c1ccccc1O)c1ccc(Br)cc1	> 10000	1820	1540
Cc1ccc(-n2c(=S)sc3c(=O)n(-c4ccccc4)c(SCC(=O)c4ccccc4)nc32)cc1C	> 10000	1790	> 1250
COc1cccc(C2(NC(=O)CCn3ccnc3-c3ccccc3)CCCC2)c1	> 10000	1780	> 1250
COc1ccc(-c2ccc(C(=O)N(C)Cc3cscn3)c(N3CCC(N4CCc5ccccc5C4)CC3)n2)cc1	> 10000	1750	> 1250
COc1cc(-c2nc(-c3ccccc3)c(-c3ccc(O)cc3)[nH]2)cc(OC)c1O	> 10000	> 1750	879
CCOC(=O)C1=C(C)N/C(=C\c2cc(C)n(-c3ccc(C)cc3C)c2C)C1=O	> 10000	1740	> 1250
Cc1cc(N(C)C)cc(C)[n+]1OC(=O)N(c1ccccc1)c1ccccc1	> 10000	2000	> 1490
O=C(NCCc1ccccc1)c1cnc(NCCCn2ccnc2)nc1NC1CCCC1	> 8690	1720	678
CCc1ccc(CSc2nc3cc(OC)c(OC)cc3c(=N)n2CCc2ccccc2)cc1	38900	7620	6640
Cn1c(SCC2CCCO2)nnc1C1CCN(C/C=C/c2ccccc2)CC1 (centres undefined)	> 3890	> 758	> 1280
Clc1ccc(Nc2nc3nonc3nc2Nc2ccc(Cl)c(Cl)c2)cc1Cl	48700	9280	> 12500
COc1cccc(OC)c1C(=O)Nc1cc(C(F)(F)F)ccc1Cl	> 10000	1810	> 1250
CCCCC(CC)C(=O)N1CCN(C(C)c2nc3ccc(Cl)cc3c(=O)n2C)CC1 (centres undefined)	> 10000	1810	> 1490
Cc1cc(NC(=O)/C=C/c2ccccc2Cl)ccc1Br	> 10000	1810	1350
O=C(NC1CC1)c1ccc(N2C(=O)C3C4c5ccccc5C(c5ccccc54)C3C2=O)cc1 (centres undefined)	> 10000	1900	> 872
O=C(Nc1ccc(C(F)(F)F)cc1)c1cc(S(=O)(=O)NC2CCCCCC2)ccc1F	17700	3330	4000
Cc1ccc2[nH]c(/C(C#N)=C/c3cn(Cc4ccc(Cl)cc4Cl)nc3-c3ccccc3)nc2c1	> 10000	1880	> 1010
CCOc1ccc(CN(CCC(c2ccccc2)c2ccccc2)C(=O)Nc2ccccc2C)cc1	> 10000	1850	> 1350
CC(C)(c1ccc(Oc2ccc(NC(=O)c3ccccc3)cc2)cc1)c1cccc(Oc2ccc(NC(=O)c3ccccc3)cc2)c1	> 10000	1770	1560
CC(C)(C)c1ccc(NC(=O)CN2CCCCC2)cc1	49700	> 8770	> 12500
O=C(Nc1ccc(N2CCCCC2)cc1)c1cc2ccccc2o1	> 3660	634	> 1300

Structure (SMILES)	CC50 [1] [nM]	EC50 (Plasmodium falciparum [2]) [nM]	EC50 (Plasmodium falciparum [3]) [nM]
COC(=O)c1ccccc1NC(=O)COc1cccc(OC)c1	> 10000	1860	> 1410
O=C(Nc1ccc(-c2nc3ccc(NC(=O)c4cccc5ccccc45)cc3[nH]2)cc1)c1cccc2ccccc12	> 10000	1920	1430
COc1ccc(C)cc1Nc1nc(N)c2cc(OC)c(OC)cc2n1	> 10000	2040	973
Cc1sc2nc(C3CC3)n(C3CCN(C(=O)c4ccccn4)CC3)c(=O)c2c1C	> 10000	2020	> 1250
COC(=O)COc1ccc(/C=C2\SC(=Nc3ccc(F)cc3)NC2=O)cc1	> 10000	1790	> 757
C[n+]1ccc(C2OC2c2ccccc2)c2ccccc21 (centres undefined)	> 10000	1740	1380
Cc1cc(Nc2ccc(Cl)cc2)n2nnnc2n1	> 10000	1750	> 1640
N=C1NC(=O)C(=CC=Cc2ccc([N+](=O)[O-])o2)S1	7210	1460	707
COc1ccc([C@@H]2Nc3ccc(C(C)=O)cc3[C@@H]3C=CC[C@@H]32)cc1[N+](=O)[O-]	> 10000	1760	> 1250
c1ccc(C2=NN(c3ccccc3)C(c3ccc4c(c3)OCO4)N2c2ccc(N3CCOCC3)cc2)cc1 (centres undefined)	> 10000	1780	680
COc1ccccc1CN1CCc2nc(-c3cnccn3)sc2C1	23000	4440	9230
O=[N+]([O-])c1ccc(-n2cccc2C=NNc2ncnc3sc4c(c23)CCCC4)cc1	7450	1410	2780
COCCCNC(=O)CSCc1nc(-c2ccccc2F)oc1C	> 10000	> 1740	> 467
CCCNC(=O)N1CCC2(CC1)CC(=O)c1ccccc1O2	> 10000	1770	> 1250
CCSc1ncnc2scc(-c3ccccc3)c12	> 10000	1710	> 1510
CCOC(=O)NC(=O)N1CCC(c2nc(-c3cc(C(C)(C)C)c(O)c(C(C)(C)C)c3)cs2)CC1	> 10000	1880	1660
COc1ccc(CCNc2nc(NCCCn3ccnc3)ncc2C(=O)NCC(C)C)cc1OC	> 6780	> 1250	563
COc1ccc(OC)c(-c2csc(N(CCCN(C)C)C(=O)Cc3ccccc3)n2)c1	17700	3430	4050
Cc1cc(NC(=O)c2ccc(Br)cc2)no1	> 10000	1910	> 1250
c1ccc(CSc2scnc2[P+](c2ccccc2)(c2ccccc2)c2ccccc2)cc1	3190	563	335
CC1=C(C(=O)OCCOc2ccccc2)C(c2cccc([N+](=O)[O-])c2)C2=C(CCCC2=O)N1 (centres undefined)	> 10000	1810	> 1250
CCOc1ccc(N2C(=O)NC(=O)/C(=C\c3cn(C(C)=O)c4ccccc34)C2=O)cc1	> 10000	1860	> 1250
